Source: patent publication US10662151B1, “Process for preparing DTEA HCl” (AMSA, Inc., priority 2017, dated 2020)

Test: Water solubility of DTEA HCl (pure and crude) at different temperatures
Assay type: physicochemical
Settings: FIG. 2
Excerpt: FIG. 2 graphically represents the water solubility of pure DTEA HCl.

solids formation (15 wt % solution in water): forms solids well above RT
solubility in water (at 32° F.): essentially insoluble
solubility in water (at 56° F., no LTS): less than 1 wt %
solubility in water (at 67° F., no LTS): 11 wt %
SMILES: CCCCCCCCCCSCCN.Cl [DTEA HCl, n-decylthioethylamine HCl]
